This is an account of results in patent publication US20250129028A1, “COMPOUNDS AND METHODS FOR YAP/TEAD MODULATION AND INDICATIONS THEREFOR” (Opna Bio SA, priority 2022, published 2025).

In the first test the test system is TEAD-dependent transcription. Kind of test: TEAD-dependent transcription cell-based reporter assay (MSTO-211H+12XGTIIC luciferase). The conditions noted are these: Homo sapiens; MSTO-211H+12XGTIIC cell line, luciferase signal normalized to cell viability, 24 hours compound incubation; read-out: MSTO-211H GMean IC50 (uM) Cell Assay Reporter Cell Variant: TEAD. On the set-up: species or system human. The source says: Determine Inhibitor Activity Against TEAD-Dependent Transcription in a Cell-Based Reporter Assay
The human mesothelioma cell line MSTO-211H was stably transfected with a pGL4.21 plasmid containing a synthetic promoter with 12 copies of the GTIIC TEAD response element that drives the expression of a luciferase reporter gene^1 using Lipofectamine transfection reagent (Thermo Fisher). Transfected cells were selected using puromycin and single cell clones expressing this construct (referred to as MSTO-211H+12XGTIIC) were generated by limiting dilution. MSTO-211H cells was characterized by genetic alterations in key components of the Hippo pathway^2, resulting in up-regulation of YAP/TEAD-mediated transcription. […] To evaluate TEAD inhibitors, the MSTO-211H+12XGTIIC cell line was seeded in a 96-well plate in 50 μL of culture media at 1×10^4 cells per well and incubated at 37° C. overnight. Serial dilutions of compounds (in total volume of 50 μL of culture media) were added to the cells and incubated at 37° C. for 24 hours. Each plate included cells treated with DMSO as high controls and cells treated with 20 μM of the reference compound K-975 (a known TEAD inhibitor)^3 as low controls. Cell viability was assayed by the addition of 25 μL of CellTiter-Fluor reagent (Promega) followed by a 30-minute incubation at 37° C. and quantification of the fluorescence signal (Ex400/Em505). Subsequently, luciferase expression was assayed by the addition of 25 μL of ONE-Glo reagent (Promega) followed by a 10-minute incubation at room temperature and quantification of the luminescence signal. The luminescence signal was normalized to the fluorescence signal to correct for any loss in cell viability over the 24-hour compound incubation period. The percentage of inhibition of normalized luminescence signal, indicative of compound-mediated inhibition of TEAD-dependent transcription, at individual compound concentrations relative to high and low controls was calculated. The data were analyzed by using nonlinear regression to generate IC50 values for individual compounds.
The IC50 is the concentration needed to halve the response being measured. Turning to `C=CC(=O)N1CCC(C2c3cc(Oc4ccc(C(F)(F)F)cc4)ccc3CCN2C(=O)CCS(C)(=O)=O)C1` (single isomer, unassigned) [P-0217, 1-(3-(2-(3-(methylsulfonyl)propanoyl)-7-(4-(trifluoromethyl)phenoxy)-1,2,3,4-tetrahydroisoquinolin-1-yl)pyrrolidin-1-yl)prop-2-en-1-one], the IC50 lay in the range of 0.001 to 10 µM.
Take `NS(=O)(=O)N1CCc2ccc(Oc3ccc(C(F)(F)F)cc3)cc2C1` [P-0001, 7-(4-(trifluoromethyl)-phenoxy)-3,4-dihydroiso-quinoline-2(1H)-sulfon-amide]: the IC50 lay in the range of 0.001 to 10 µM.
For `CCS(=O)(=O)N1CCc2ccc(Oc3ccc(C(F)(F)F)cc3)cc2C1` [P-0002, 2-(ethylsulfonyl)-7-(4-(trifluoromethyl)phen-oxy)-1,2,3,4-tetrahydro-isoquinoline], the IC50 lay within 0.001 to 10 µM.
The same measure, in the same setting: as for `CCNC(=O)N1CCc2ccc(Oc3ccc(C(F)(F)F)cc3)cc2C1` [P-0003, N-ethyl-7-(4-(trifluoro-methyl)phenoxy)-3,4-dihydroisoquinoline-2(1H)-carboxamide], the figure is 0.001 to 10 µM; as for `O=C(NC1CC1)N1CCc2ccc(Oc3ccc(C(F)(F)F)cc3)cc2C1` [P-0004, N-cyclopropyl-7-(4-(trifluoromethyl)phen-oxy)-3,4-dihydroiso-quinoline-2(1H)-carbox-amide], 0.001 to 10 µM.
Still for that read-out and setting: as for `CS(=O)(=O)N1CCc2ccc(Oc3ccc(C(F)(F)F)cc3)cc2C1` [P-0005, 2-(methylsulfonyl)-7-(4-(trifluoromethyl)phen-oxy)-1,2,3,4-tetrahydro-isoquinoline], the figure is 0.001 to 10 µM; as for `O=S(=O)(C1CC1)N1CCc2ccc(Oc3ccc(C(F)(F)F)cc3)cc2C1` [P-0006, 2-(cyclopropylsulfonyl)-7-(4-(trifluoromethyl)-phenoxy)-1,2,3,4-tetra-hydroisoquinoline], 0.001 to 10 µM; as for `O=C(C(O)CO)N1CCc2ccc(Oc3ccc(C(F)(F)F)cc3)cc2C1` (stereo not drawn) [P-0007, 2,3-dihydroxy-1-(7-(4-(trifluoromethyl)phen-oxy)-3,4-dihydroisoquin-olin-2(1H)-yl)propan-1-one], 0.001 to 10 µM.
The same measure, in the same setting: as for `NC(=O)N1CCc2ccc(Oc3ccc(C(F)(F)F)cc3)cc2C1` [P-0010, 7-(4-(trifluoromethyl)-phenoxy)-3,4-dihydroiso-quinoline-2(1H)-carbox-amide], the figure is 0.001 to 10 µM; as for `O=C(N1CCc2ccc(Oc3ccc(C(F)(F)F)cc3)cc2C1)C12CC1C2` (stereo not drawn) [P-0011, bicyclo[1.1.0]butan-1-yl(7-(4-(trifluoromethyl)-phenoxy)-3,4-dihydro-isoquinolin-2(1H)-yl)-methanone], 0.001 to 10 µM; as for `CNS(=O)(=O)N1CCc2ccc(Oc3ccc(C(F)(F)F)cc3)cc2C1` [P-0012, N-methyl-7-(4-(trifluoro-methyl)phenoxy)-3,4-dihydroisoquinoline-2(1H)-sulfonamide], 0.001 to 10 µM.
As for `CC(=O)N1CCc2ccc(Oc3ccc(C(F)(F)F)cc3)cc2C1` [P-0013, 1-(7-(4-(trifluorometh-yl)phenoxy)-3,4-dihydroisoquinolin-2(1H)-yl)ethan-1-one], the IC50 is 0.001 to 10 µM.
On the same count and under the same terms, as for `CCC(=O)N1CCc2ccc(Oc3ccc(C(F)(F)F)cc3)cc2C1` [P-0014, 1-(7-(4-(trifluorometh-yl)phenoxy)-3,4-dihydroisoquinolin-2(1H)-yl)propan-1-one], the figure is 0.001 to 10 µM; as for `O=C(C1CC1)N1CCc2ccc(Oc3ccc(C(F)(F)F)cc3)cc2C1` [P-0015, cyclopropyl(7-(4-(trifluoromethyl)phen-oxy)-3,4-dihydroiso-quinolin-2(1H)-yl)-methanone], 0.001 to 10 µM; as for `CNC(=O)N1CCc2ccc(Oc3ccc(C(F)(F)F)cc3)cc2C1` [P-0016, N-methyl-7-(4-(trifluoro-methyl)phenoxy)-3,4-dihydroisoquinoline-2(1H)-carboxamide], 0.001 to 10 µM.
As for `CCNS(=O)(=O)N1CCc2ccc(Oc3ccc(C(F)(F)F)cc3)cc2C1` [P-0017, N-Ethyl-7-(4-(trifluoromethyl)phenoxy)-3,4-dihydroisoquinoline-2(1H)-sulfonamide], the IC50 was in the range of 0.001 to 10 µM.
On the same count and under the same terms, as for `CS(=O)(=O)CCC(=O)N1CCc2ccc(Oc3ccc(C(F)(F)F)cc3)cc2C1` [P-0018, 3-(methylsulfonyl)-1-(7-(4-(trifluoromethyl)phenoxy)-3,4-dihydroisoquinolin-2(1H)-yl)propan-1-one], the figure is 0.001 to 10 µM; as for `CC(C)NC(=O)N1CCc2ccc(Oc3ccc(C(F)(F)F)cc3)cc2C1` [P-0019, N-isopropyl-7-(4-(trifluoromethyl)phen-oxy)-3,4-dihydroiso-quinoline-2(1H)-carbox-amide], 0.001 to 10 µM; as for `CC(C)NS(=O)(=O)N1CCc2ccc(Oc3ccc(C(F)(F)F)cc3)cc2C1` [P-0020, N-isopropyl-7-(4-(trifluoromethyl)phen-oxy)-3,4-dihydroiso-quinoline-2(1H)-sulfon-amide], 0.001 to 10 µM.
Same read-out and setting: as for `CC(C)S(=O)(=O)N1CCc2ccc(Oc3ccc(C(F)(F)F)cc3)cc2C1` [P-0021, 2-(isopropylsulfonyl)-7-(4-(trifluoromethyl)-phenoxy)-1,2,3,4-tetra-hydroisoquinoline], the figure is 0.001 to 10 µM; as for `O=C(Nc1ccccc1)N1CCc2ccc(Oc3ccc(C(F)(F)F)cc3)cc2C1` [P-0022, N-phenyl-7-(4-(trifluoro-methyl)phenoxy)-3,4-dihydroisoquinoline-2(1H)-carboxamide], 0.001 to 10 µM; as for `CCCCC(=O)N1CCc2ccc(Oc3ccc(C(F)(F)F)cc3)cc2C1` [P-0023, 1-(7-(4-(trifluorometh-yl)phenoxy)-3,4-dihydro-isoquinolin-2(1H)-yl)-pentan-1-one], 0.001 to 10 µM.
Still for that read-out and setting: as for `CN(C)S(=O)(=O)N1CCc2ccc(Oc3ccc(C(F)(F)F)cc3)cc2C1` [P-0024, N,N-dimethyl-7-(4-(trifluoromethyl)phen-oxy)-3,4-dihydroiso-quinoline-2(1H)-sulfon-amide], the figure is 0.001 to 10 µM; as for `COC(=O)N1CCc2ccc(Oc3ccc(C(F)(F)F)cc3)cc2C1` [P-0025, methyl 7-(4-(trifluoro-methyl)phenoxy)-3,4-dihydroisoquinoline-2(1H)-carboxylate], 0.001 to 10 µM; as for `NC(=O)CN1CCc2ccc(Oc3ccc(C(F)(F)F)cc3)cc2C1` [P-0026, 2-(7-(4-(trifluorometh-yl)phenoxy)-3,4-dihydro-isoquinolin-2(1H)-yl)-acetamide], 0.001 to 10 µM.
For `CN(C)C(=O)CN1CCc2ccc(Oc3ccc(C(F)(F)F)cc3)cc2C1` [P-0027, N,N-dimethyl-2-(7-(4-(trifluoromethyl)phen-oxy)-3,4-dihydroisoquin-olin-2(1H)-yl)acetamide], the 50% inhibitory concentration (IC50) was 0.001 to 10 µM.
Regarding `CCC(=O)CN1CCc2ccc(Oc3ccc(C(F)(F)F)cc3)cc2C1` [P-0028, 1-(7-(4-(trifluorometh-yl)phenoxy)-3,4-dihydro-isoquinolin-2(1H)-yl)-butan-2-one], the IC50 lay in the range of 10 to 100 µM.
The same measure, in the same setting: as for `NC(=O)CCN1CCc2ccc(Oc3ccc(C(F)(F)F)cc3)cc2C1` [P-0029, 3-(7-(4-(trifluorometh-yl)phenoxy)-3,4-dihydro-isoquinolin-2(1H)-yl)-propanamide], the figure is 10 to 100 µM; as for `O=S(=O)(N1CCCC1)N1CCc2ccc(Oc3ccc(C(F)(F)F)cc3)cc2C1` [P-0030, 2-(pyrrolidin-1-ylsulfon-yl)-7-(4-(trifluorometh-yl)phenoxy)-1,2,3,4-tetrahydroisoquinoline], 0.001 to 10 µM; as for `CSCCC(=O)N1CCc2ccc(Oc3ccc(C(F)(F)F)cc3)cc2C1` [P-0031, 3-(methylthio)-1-(7-(4-(trifluoromethyl)phen-oxy)-3,4-dihydroisoquin-olin-2(1H)-yl)propan-1-one], 0.001 to 10 µM.
The same measure, in the same setting: as for `CCCCNC(=O)N1CCc2ccc(Oc3ccc(C(F)(F)F)cc3)cc2C1` [P-0032, N-butyl-7-(4-(trifluoro-methyl)phenoxy)-3,4-dihydroisoquinoline-2(1H)-carboxamide], the figure is 0.001 to 10 µM; as for `O=C(C1CCC1)N1CCc2ccc(Oc3ccc(C(F)(F)F)cc3)cc2C1` [P-0033, cyclobutyl(7-(4-(trifluoro-methyl)phenoxy)-3,4-dihydroisoquinolin-2(1H)-yl)methanone], 0.001 to 10 µM.

The same test, now with this note: MSTO-211H+12XGTIIC cell line, luciferase signal normalized to cell viability, 24 hours compound incubation; read-out: MSTO-211H GMean IC50 (uM) Cell Assay Reporter Cell Variant: TEAD.
For `C=CC(=O)N1CCC(C2c3cc(Oc4ccc(C(F)(F)F)cc4)ccc3CCN2C(=O)CCS(C)(=O)=O)C1` (single isomer, unassigned) [P-0218, 1-(3-(2-(3-(methylsulfonyl)propanoyl)-7-(4-(trifluoromethyl)phenoxy)-1,2,3,4-tetrahydroisoquinolin-1-yl)pyrrolidin-1-yl)prop-2-en-1-one], the IC50 was 0.001 to 10 µM.
